Source: US9247759B2, “Identification of human T2R receptors that respond to bitter compounds that elicit the bitter taste in compositions, and the use thereof in assays to identify compounds that inhibit (block) bitter taste in compositions and use thereof” (SENOMYX, INC., priority 2007, dated 2016)
Where two headings read alike, the source gives them in different places.

Legend:
[1] = test system: hT2R54; test: hT2R panel inhibition, transient HEK293 G16g44, agonist Ranitidine 5 mM; type: cell-based, human; settings: compound at 25 μM; receptor activated to EC80 with the corresponding agonist
Experimental: (§1) Specifically, in order to evaluate the inhibitory selectivity of the Compound C compound, this compound was tested against 22 human T2Rs which were deorphaned by Senomyx. These receptors and the bitter ligands that activate these human T2Rs are reported in earlier patent applications which are incorporated by reference herein. These 22 human T2Rs are hT2R1, 3, 4, 5, 7, 8, 9, 10, 13, 14, 16, 44, 51, 54, 55, 61, 63, 64, 65, 67, 71 and 75. The amino acid and nucleic acid sequences of all of these T2Rs may be found in these earlier patent applications. These human T2Rs were each individually transiently transfected into HEK293 cells that stably express the promiscuous G protein G16g44 and functional assays were effected using these receptors as disclosed in these same patent applications. […] The ligands were used at EC80 concentration levels. The list of bitter ligands utilized and the tested ligand concentrations are contained in Table 5 of this example.
(§2) Relating to the foregoing, FIG. 5 contains experimental results wherein Compound C was tested with different agonist compounds. The inhibition activity is represented by the reduction of receptor activity in the presence of Compound C. […] These 13 hT2Rs are hT2R3, 7, 10, 14, 16, 44, 51, 55, 61, 63, 64, 65, and 71.

[2] = biological target: hT2R3 (Homo sapiens (Human), UniProt Q9NYW6); test: hT2R panel inhibition, transient HEK293 G16g44, agonist Chloroquine pH6.5 50 μM; type: cell-based; settings: HEK293, compound at 25 μM
How it was run: (§3)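 Selectivity screen across 22 hT2Rs, each transfected singly into a G16g44-stable HEK293 background. Agonist dosed at EC80. Inhibition = reduced receptor response in presence of test compound.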

[3] = biological target: hT2R51 (Homo sapiens (Human), UniProt P59533); test: hT2R panel inhibition, transient HEK293 G16g44, agonist Prop 2.5 μM; type: cell-based; settings: HEK293, compound at 25 μM; receptor activated to EC80 with the corresponding agonist; read-out: screening result against bitter receptor 51
Experimental: as §1, §2

[4] = test system: hT2R44; test: hT2R panel inhibition, transient HEK293 G16g44, agonist Denatonium 0.5 μM; type: cell-based, human; settings: compound at 25 μM; for screening result against bitter receptor 44: receptor activated to EC80 with the corresponding agonist
How it was run: as §3

[5] = biological target: hT2R61 (Homo sapiens (Human), UniProt P59537); test: hT2R panel inhibition, transient HEK293 G16g44, agonist Aristolochic Acid 25 nM; type: cell-based; settings: HEK293, compound at 25 μM
How it was run: as §3

[6] = biological target: hT2R5 (Homo sapiens (Human), UniProt Q9NYW4); test: hT2R panel inhibition, transient HEK293 G16g44, agonist Picoline 10 mM; type: cell-based; settings: HEK293, compound at 25 μM; receptor activated to EC80 with the corresponding agonist; read-out: screening result against bitter receptor 5
How it was run: as §3

[7] = biological target: hT2R71 (Homo sapiens (Human), UniProt P59536); test: hT2R panel inhibition, transient HEK293 G16g44, agonist Picric Acid 10 μM; type: cell-based; settings: HEK293, compound at 25 μM
How it was run: as §3

[8] = biological target: hT2R16 (Homo sapiens (Human), UniProt Q9NYV7); test: hT2R panel inhibition, transient HEK293 G16g44, agonist Salicin 1 mM; type: cell-based; settings: HEK293, compound at 25 μM
How it was run: as §3

[9] = test system: hT2R67; test: hT2R panel inhibition, transient HEK293 G16g44, agonist Andrographolide 5 μM; type: cell-based, human; settings: compound at 25 μM; receptor activated to EC80 with the corresponding agonist
Experimental: as §1, §2

[10] = test system: hT2R63; test: hT2R panel inhibition, transient HEK293 G16g44, agonist Caffeine 1 mM or Andrographolide 100 μM; type: cell-based, human; settings: compound at 25 μM; for screening result against bitter receptor 63: receptor activated to EC80 with the corresponding agonist
How it was run: as §3

[11] = test system: hT2R55; test: hT2R panel inhibition, transient HEK293 G16g44, agonist Cinchonine 150 μM; type: cell-based, human; settings: compound at 25 μM; for screening result against bitter receptor 55: receptor activated to EC80 with the corresponding agonist
How it was run: as §3

[12] = biological target: hT2R64 (Homo sapiens (Human), UniProt P59538); test: hT2R panel inhibition, transient HEK293 G16g44, agonist Aristolochic Acid 1 μM; type: cell-based; settings: HEK293, compound at 25 μM
How it was run: as §3

[13] = biological target: T1, hT2R14 (Homo sapiens (Human), UniProt Q9NYV8); test: hT2R panel inhibition, transient HEK293 G16g44, agonist Aristolochic Acid 2 μM; type: cell-based; settings: HEK293, compound at 25 μM
How it was run: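 Agonist challenge was at EC80, with 0.5 mM andrographolide on hT2R8 and 2 μM aristolochic acid on hT2R14. Inhibition was measured in functional assays in HEK293 cells that stably carry the promiscuous G protein G16g44 and were transiently transfected with the individual receptor.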

[14] = test system: hT2R65; test: hT2R panel inhibition, transient HEK293 G16g44, agonist Oleuropein 1 mM; type: cell-based, human; settings: compound at 25 μM; for screening result against bitter receptor 65: receptor activated to EC80 with the corresponding agonist
Experimental: as §1, §2

[15] = biological target: hT2R10 (Homo sapiens (Human), UniProt Q9NYW0); test: hT2R panel inhibition, transient HEK293 G16g44, agonist Strychnine 50 μM; type: cell-based
[16] = biological target: hT2R7 (Homo sapiens (Human), UniProt Q9NYW3); test: hT2R panel inhibition, transient HEK293 G16g44, agonist Chloroquine pH6.5 10 mM; type: cell-based; settings: HEK293, compound at 25 μM; receptor activated to EC80 with the corresponding agonist; read-out: screening result against bitter receptor 7
Experimental: as §1, §2

[17] = biological target: hT2R75 (Homo sapiens (Human), UniProt P59540); test: hT2R panel inhibition, transient HEK293 G16g44, agonist Strychnine 1 μM; type: cell-based
Experimental: as §1, §2

[18] = biological target: T1, hT2R14; test: hT2R14 antagonist high-throughput FLIPR assay, stable cell line with G16g44, agonist aristolochic acid; type: cell-based; settings: read-out: IC50 on hT2R14 bitter receptor
How it was run: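 Compounds were co-applied with 3 μM aristolochic acid, a dose set to reach 70-80% of maximal hT2R14 activation. Read-out was FLIPR fluorescence in a stable HEK293 line co-expressing hT2R14 and G16g44.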

[19] = receptor activated to EC80 with the corresponding agonist, read-out: screening result against bitter receptor 3
[20] = receptor activated to EC80 with the corresponding agonist, read-out: screening result against bitter receptor 61
[21] = receptor activated to EC80 with the corresponding agonist, read-out: screening result against bitter receptor 71
[22] = receptor activated to EC80 with the corresponding agonist, read-out: screening result against bitter receptor 16
[23] = receptor activated to EC80 with the corresponding agonist, read-out: screening result against bitter receptor 64
[24] = receptor activated to EC80 with the corresponding agonist, read-out: screening result against bitter receptor 14
[25] = HEK293, read-out: screening result against bitter receptor 10, compound at 25 μM, receptor activated to EC80 with the corresponding agonist
[26] = receptor activated to EC80 with agonist

T1 sequence (Q9NYV8 whole entry): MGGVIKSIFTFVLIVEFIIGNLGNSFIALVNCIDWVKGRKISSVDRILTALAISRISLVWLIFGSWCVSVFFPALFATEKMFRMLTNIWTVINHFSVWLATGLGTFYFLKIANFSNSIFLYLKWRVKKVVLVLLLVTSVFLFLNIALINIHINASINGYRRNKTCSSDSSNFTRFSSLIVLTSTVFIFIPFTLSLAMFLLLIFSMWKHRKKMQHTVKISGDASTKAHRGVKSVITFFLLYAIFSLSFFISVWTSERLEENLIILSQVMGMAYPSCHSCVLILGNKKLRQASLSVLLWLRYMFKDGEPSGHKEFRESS
hT2R64, sequence (P59538 whole entry): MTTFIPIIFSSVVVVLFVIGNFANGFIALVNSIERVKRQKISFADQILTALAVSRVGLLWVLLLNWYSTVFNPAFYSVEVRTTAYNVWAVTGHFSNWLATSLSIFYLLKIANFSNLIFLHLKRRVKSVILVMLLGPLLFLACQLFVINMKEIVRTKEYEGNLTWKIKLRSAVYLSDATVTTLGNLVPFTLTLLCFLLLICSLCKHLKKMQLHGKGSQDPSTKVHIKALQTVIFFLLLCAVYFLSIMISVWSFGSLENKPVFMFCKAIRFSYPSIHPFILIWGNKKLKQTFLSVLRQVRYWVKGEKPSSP
hT2R16, sequence (Q9NYV7 whole entry): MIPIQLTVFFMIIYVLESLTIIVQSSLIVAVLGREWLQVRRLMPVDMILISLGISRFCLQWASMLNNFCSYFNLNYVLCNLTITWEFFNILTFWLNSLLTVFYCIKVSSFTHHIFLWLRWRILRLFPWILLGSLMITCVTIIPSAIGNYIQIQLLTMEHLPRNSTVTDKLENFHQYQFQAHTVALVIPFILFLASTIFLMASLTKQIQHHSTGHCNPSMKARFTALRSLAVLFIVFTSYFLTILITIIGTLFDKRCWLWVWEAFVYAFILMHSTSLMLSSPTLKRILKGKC
hT2R10, sequence (Q9NYW0 whole entry): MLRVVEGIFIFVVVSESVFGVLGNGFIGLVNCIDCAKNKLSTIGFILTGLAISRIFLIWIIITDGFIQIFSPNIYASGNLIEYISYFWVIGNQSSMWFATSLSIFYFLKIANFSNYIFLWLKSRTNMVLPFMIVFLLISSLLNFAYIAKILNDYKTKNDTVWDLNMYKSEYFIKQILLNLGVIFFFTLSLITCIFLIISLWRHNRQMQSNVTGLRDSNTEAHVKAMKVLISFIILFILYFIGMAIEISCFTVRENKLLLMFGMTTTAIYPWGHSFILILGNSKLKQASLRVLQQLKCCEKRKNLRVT
hT2R71, sequence (P59536 whole entry): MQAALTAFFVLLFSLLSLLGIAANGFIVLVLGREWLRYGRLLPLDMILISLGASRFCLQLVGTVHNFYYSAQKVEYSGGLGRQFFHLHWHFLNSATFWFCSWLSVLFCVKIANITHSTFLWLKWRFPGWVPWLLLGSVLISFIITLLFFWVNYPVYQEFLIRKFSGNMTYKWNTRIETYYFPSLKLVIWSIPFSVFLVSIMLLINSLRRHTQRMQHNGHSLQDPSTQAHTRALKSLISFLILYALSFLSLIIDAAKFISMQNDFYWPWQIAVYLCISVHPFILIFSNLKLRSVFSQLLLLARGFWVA
hT2R3, sequence (Q9NYW6 whole entry): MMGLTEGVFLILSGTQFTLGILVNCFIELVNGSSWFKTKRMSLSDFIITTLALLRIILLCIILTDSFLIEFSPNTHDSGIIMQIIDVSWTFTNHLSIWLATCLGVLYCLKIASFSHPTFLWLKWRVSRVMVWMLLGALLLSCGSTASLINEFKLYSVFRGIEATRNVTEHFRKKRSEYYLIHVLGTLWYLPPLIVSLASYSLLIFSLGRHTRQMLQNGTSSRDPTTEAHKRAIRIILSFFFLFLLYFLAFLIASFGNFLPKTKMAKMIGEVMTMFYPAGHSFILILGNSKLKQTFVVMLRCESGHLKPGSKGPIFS
hT2R61, sequence (P59537 whole entry): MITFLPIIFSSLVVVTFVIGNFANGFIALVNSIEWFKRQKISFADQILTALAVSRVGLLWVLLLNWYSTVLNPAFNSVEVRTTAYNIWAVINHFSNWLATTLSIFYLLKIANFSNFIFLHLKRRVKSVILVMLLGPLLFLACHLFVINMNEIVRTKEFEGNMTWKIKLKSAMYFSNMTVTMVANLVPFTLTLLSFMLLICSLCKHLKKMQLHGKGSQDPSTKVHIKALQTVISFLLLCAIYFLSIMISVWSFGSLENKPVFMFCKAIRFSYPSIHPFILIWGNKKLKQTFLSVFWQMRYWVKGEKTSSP
hT2R5, sequence (Q9NYW4 whole entry): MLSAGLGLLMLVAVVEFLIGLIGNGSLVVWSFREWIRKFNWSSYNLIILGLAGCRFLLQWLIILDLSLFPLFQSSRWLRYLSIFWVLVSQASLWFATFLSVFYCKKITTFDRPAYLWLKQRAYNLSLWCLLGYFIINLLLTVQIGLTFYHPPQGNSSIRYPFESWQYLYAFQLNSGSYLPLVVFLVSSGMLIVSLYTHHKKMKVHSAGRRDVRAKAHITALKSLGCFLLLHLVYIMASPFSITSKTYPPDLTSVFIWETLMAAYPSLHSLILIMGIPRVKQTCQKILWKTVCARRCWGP
hT2R51, sequence (P59533 whole entry): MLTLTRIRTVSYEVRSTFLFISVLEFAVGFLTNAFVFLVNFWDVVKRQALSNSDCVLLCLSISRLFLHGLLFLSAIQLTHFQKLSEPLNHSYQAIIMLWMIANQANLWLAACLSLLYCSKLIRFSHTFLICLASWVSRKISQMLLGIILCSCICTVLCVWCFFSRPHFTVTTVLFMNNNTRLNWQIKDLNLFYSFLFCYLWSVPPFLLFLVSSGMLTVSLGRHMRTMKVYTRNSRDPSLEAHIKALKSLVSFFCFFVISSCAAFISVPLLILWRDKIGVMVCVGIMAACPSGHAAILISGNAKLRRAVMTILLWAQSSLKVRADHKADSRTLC
hT2R75, sequence (P59540 whole entry): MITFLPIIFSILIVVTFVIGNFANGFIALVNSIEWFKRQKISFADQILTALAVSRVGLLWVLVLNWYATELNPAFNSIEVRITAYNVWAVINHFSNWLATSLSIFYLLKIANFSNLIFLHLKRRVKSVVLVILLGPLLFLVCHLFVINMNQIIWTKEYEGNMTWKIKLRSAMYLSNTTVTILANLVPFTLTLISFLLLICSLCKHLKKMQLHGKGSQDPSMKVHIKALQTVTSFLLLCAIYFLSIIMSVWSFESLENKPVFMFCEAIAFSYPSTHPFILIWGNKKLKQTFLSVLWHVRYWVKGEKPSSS
hT2R7, sequence (Q9NYW3 whole entry): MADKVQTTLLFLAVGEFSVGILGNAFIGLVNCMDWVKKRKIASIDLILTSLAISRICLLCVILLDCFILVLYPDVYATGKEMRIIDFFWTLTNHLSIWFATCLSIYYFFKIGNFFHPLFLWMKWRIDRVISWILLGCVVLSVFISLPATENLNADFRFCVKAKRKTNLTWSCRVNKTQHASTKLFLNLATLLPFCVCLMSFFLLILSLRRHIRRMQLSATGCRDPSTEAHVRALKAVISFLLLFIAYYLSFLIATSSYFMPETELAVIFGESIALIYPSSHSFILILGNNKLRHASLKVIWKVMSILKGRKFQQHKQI

## O=C(O)c1ccc(S(=O)(=O)N(Cc2ccccc2)Cc2cccc(F)c2)cc1 [Example 5-79, 4-(N-benzyl-N-(3-fluorobenzyl)sulfamoyl)benzoic acid]
[1]
  screening result against bitter receptor 54: + (20% to 40% inhibition = +)
[2]; [19]
  inhibition at 25 µM: 40 to 60%
[3]
  inhibition at 25 µM: > 80%
[4]
  screening result against bitter receptor 44: ++ (40% to 60% inhibition = ++)
[5]; [20]
  inhibition at 25 µM: > 80%
[6]
  inhibition at 25 µM: 20 to 40%
[7]; [21]
  inhibition at 25 µM: 60 to 80%
[8]; [22]
  inhibition at 25 µM: 20 to 40%
[9]
  screening result against bitter receptor 67: + (20% to 40% inhibition = +)
[10]
  screening result against bitter receptor 63: ++++ (80% or greater inhibition = ++++)
[11]
  screening result against bitter receptor 55: +++ (60% to 80% inhibition = +++)
[12]; [23]
  inhibition at 25 µM: 60 to 80%
[13]; [24]
  inhibition at 25 µM: > 80%
[14]
  screening result against bitter receptor 65: ++ (40% to 60% inhibition = ++)
[15]; [25]
  inhibition at 25 µM: 20 to 40%

## COc1cccc(CN(Cc2ccccc2)S(=O)(=O)c2ccc(C(=O)O)cc2)c1 [Example 5-74, 4-(N-benzyl-N-(3-methoxybenzyl)sulfamoyl)benzoic acid]
[1]
  screening result against bitter receptor 54: ++ (40% to 60% inhibition = ++)
[2]; [19]
  inhibition at 25 µM: 20 to 40%
[3]
  inhibition at 25 µM: 40 to 60%
[4]
  screening result against bitter receptor 44: + (20% to 40% inhibition = +)
[5]; [20]
  inhibition at 25 µM: > 80%
[6]
  inhibition at 25 µM: 20 to 40%
[16]
  inhibition at 25 µM: 20 to 40%
[7]; [21]
  inhibition at 25 µM: 60 to 80%
[8]; [22]
  inhibition at 25 µM: 20 to 40%
[9]
  screening result against bitter receptor 67: + (20% to 40% inhibition = +)
[10]
  screening result against bitter receptor 63: ++++ (80% or greater inhibition = ++++)
[11]
  screening result against bitter receptor 55: +++ (60% to 80% inhibition = +++)
[12]; [23]
  inhibition at 25 µM: 20 to 40%
[13]; [24]
  inhibition at 25 µM: > 80%
[14]
  screening result against bitter receptor 65: ++ (40% to 60% inhibition = ++)
[15]; [25]
  inhibition at 25 µM: 40 to 60%

## COc1ccc(OC)c(/C=C2\SC(=S)N(CCC(=O)O)C2=O)c1 [Example 6-1, (Z)-3-(5-(2,5-dimethoxybenzylidene)-4-oxo-2-thioxothiazolidin-3-yl)propanoic acid]
[2]; receptor activated to EC80 with agonist, read-out: inhibition of bitter receptor 3
  inhibition at 25 µM: 20 to 40%
[4]; [26]
  inhibition of bitter receptor 44: ++ (40% to 60% inhibition = ++)
[17]; HEK293, read-out: inhibition of bitter receptor 75, compound at 25 μM, receptor activated to EC80 with agonist
  inhibition at 25 µM: 20 to 40%
[5]; receptor activated to EC80 with agonist, read-out: inhibition of bitter receptor 61
  inhibition at 25 µM: 40 to 60%
[7]; receptor activated to EC80 with agonist, read-out: inhibition of bitter receptor 71
  inhibition at 25 µM: 20 to 40%
[8]; receptor activated to EC80 with agonist, read-out: inhibition of bitter receptor 16
  inhibition at 25 µM: 20 to 40%
[18]
  IC50: 2750 nM
[10]; [26]
  inhibition of bitter receptor 63: + (20% to 40% inhibition = +)
[11]; [26]
  inhibition of bitter receptor 55: + (20% to 40% inhibition = +)
[12]; receptor activated to EC80 with agonist, read-out: inhibition of bitter receptor 64
  inhibition at 25 µM: 60 to 80%
[13]; receptor activated to EC80 with agonist, read-out: inhibition of bitter receptor 14
  inhibition at 25 µM: > 80%
[14]; [26]
  inhibition of bitter receptor 65: + (20% to 40% inhibition = +)
[15]; HEK293, read-out: inhibition of bitter receptor 10, compound at 25 μM, receptor activated to EC80 with agonist
  inhibition at 25 µM: > 80%

## COc1ccccc1CN(Cc1ccc(C(=O)O)cc1)S(=O)(=O)c1ccc(O)cc1 [Example 5-42, 4-((4-hydroxy-N-(2-methoxybenzyl)phenylsulfonamido)methyl)-benzoic acid]
[2]; [19]
  inhibition at 25 µM: 20 to 40%
[4]
  screening result against bitter receptor 44: ++ (40% to 60% inhibition = ++)
[17]; HEK293, read-out: screening result against bitter receptor 75, compound at 25 μM, receptor activated to EC80 with the corresponding agonist
  inhibition at 25 µM: 20 to 40%
[5]; [20]
  inhibition at 25 µM: > 80%
[7]; [21]
  inhibition at 25 µM: 40 to 60%
[8]; [22]
  inhibition at 25 µM: 20 to 40%
[18]
  IC50: 2560 nM
[10]
  screening result against bitter receptor 63: ++ (40% to 60% inhibition = ++)
[12]; [23]
  inhibition at 25 µM: 40 to 60%
[13]; [24]
  inhibition at 25 µM: > 80%
